Values quoted from earlier work in patent US20230151225A1, “BLENDING ZINC […] BASE MATERIALS IN ORDER TO CREATE QUICKLY APPLIED ANTI-MICROBIAL SURFACES” (CAO Group, Inc., priority 2020, published 2023).

Substance: zinc pyrithione
- solubility in water: 8 ppm
